Assay results from patent US12612368B2 (Remedy Plan, Inc., priority 2019, dated 2026).
Read-outs that look alike come from different tables or passages of the source.

Columns and labels:
MV-4-11 cells = assay: Cell viability in MV-4-11 cells (CellTiter Glo2); assay type: cell-based; conditions: Homo sapiens, MV4-11, 96 h, 8-point dose response, 4 days
Procedure: Approximately 10,000 MV-4-11 cells per well of a 96-well plate were treated with DMSO (no drug control) or each compound in Tables E1 and E2 in an 8-point dose response for 4 days, Cell viability was measured using CellTiter Glo2. The ICse of each compound was determined using CDD Vault.

NAMPT = biological target: T1, NAMPT (Homo sapiens, UniProt P43490); assay: NAMPT Activity Assay (Abcam #ab221819); assay type: biochemical; conditions: purified NAMPT, two-step reaction, OD450 nm; percent inhibition vs no drug; compound concentration not stated
T1 construct: purchased Abcam ab221819

[1] = CellTiter Glo2 (Table E2), read-out: MV-4-11 Cell Viability, MV-4-11 IC50
[2] = CellTiter Glo2 (Table E1), read-out: MV-4-11 IC50

T1 sequence (P43490 whole entry): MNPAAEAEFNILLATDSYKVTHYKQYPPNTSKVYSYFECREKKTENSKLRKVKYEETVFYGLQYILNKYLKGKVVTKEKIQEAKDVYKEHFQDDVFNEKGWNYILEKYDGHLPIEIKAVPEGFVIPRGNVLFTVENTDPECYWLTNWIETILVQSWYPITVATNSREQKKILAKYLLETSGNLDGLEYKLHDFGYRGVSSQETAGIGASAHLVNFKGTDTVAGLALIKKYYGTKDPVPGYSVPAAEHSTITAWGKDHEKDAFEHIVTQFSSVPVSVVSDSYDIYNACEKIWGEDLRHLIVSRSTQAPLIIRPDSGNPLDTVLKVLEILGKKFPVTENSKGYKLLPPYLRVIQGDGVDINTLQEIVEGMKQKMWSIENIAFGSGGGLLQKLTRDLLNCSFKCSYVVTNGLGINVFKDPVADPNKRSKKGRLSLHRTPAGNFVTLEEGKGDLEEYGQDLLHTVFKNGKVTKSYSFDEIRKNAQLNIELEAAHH

SMILES | IC50 (MV-4-11 cells; [1]) [µM] | NAMPT Inhibition Code (NAMPT) | IC50 (MV-4-11 cells; [2]) [µM]
CC(=O)N(C)c1ccc(-c2ccc(C(=O)NCc3cccnc3C)cn2)cc1C#N [Compound I-456, 6-[4-[acetyl(methyl)amino]-3-cyano-phenyl]-N-[(2-methyl-3-pyridyl)methyl]pyridine-3-carboxamide] | > 30 | A (A = <33% inhibition) | –
CC(=O)N(CCC#N)c1ccc(-c2ccc(C(=O)NCc3cccnc3)cn2)cc1 [Compound I-484, 6-[4-[acetyl(2-cyanoethyl)amino]phenyl]-N-(3-pyridylmethyl)pyridine-3-carboxamide] | 2.66 | A (A = <33% inhibition) | –
CCC(=O)N(C)c1ccc(-c2ccc(C(=O)Nc3cccnc3)cn2)cc1 [Compound I-353, 6-[4-[methyl(propanoyl)amino]phenyl]-N-(3-pyridyl)pyridine-3-carboxamide] | – | C (C = ≥66% inhibition) | 0.941
CC(=O)N(C)c1ccc(-c2ccc(C(=O)NCc3cccnc3C)cn2)cc1C(F)(F)F [Compound I-455, 6-[4-[acetyl(methyl)amino]-3-(trifluoromethyl)phenyl]-N-[(2-methyl-3-pyridyl)methyl]pyridine-3-carboxamide] | 3.47 | A (A = <33% inhibition) | –
CCC(=O)N(C)c1ccc(-c2ccc(C(=O)Nc3nc(C)cs3)cn2)cc1 [Compound I-355, 6-[4-[methyl(propanoyl)amino]phenyl]-N-(4-methylthiazol-2-yl)pyridine-3-carboxamide] | – | A (A = <33% inhibition) | 2.91
CCOC(=O)N(C)c1ccc(-c2ccc(C(=O)NCc3cccnc3)nc2)cc1 [Compound I-330, ethyl N-methyl-N-[4-[6-(3-pyridylmethylcarbamoyl)-3-pyridyl]phenyl]carbamate] | – | A (A = <33% inhibition) | 6.08
CC(=O)N(CC(F)F)c1ccc(-c2ccc(C(=O)NCc3cccnc3C)cn2)cc1 [Compound I-449, 6-[4-[acetyl(2,2-difluoroethyl)amino]phenyl]-N-[(2-methyl-3-pyridyl)methyl]pyridine-3-carboxamide] | 5.18 | A (A = <33% inhibition) | –
CCC(=O)N(C)c1ccc(-c2ccc(C(=O)NCc3cccnc3C(F)(F)F)cn2)cc1C [Compound I-511, 6-[3-Methyl-4-[methyl(propanoyl)amino]phenyl]-N-[[2-(trifluoromethyl)-3-pyridyl]methyl]pyridine-3-carboxamide] | 7.07 | A (A = <33% inhibition) | –
CC(=O)N(CC1CC1)c1ccc(-c2ccc(C(=O)NCc3ccncc3)cn2)cc1Cl [Compound I-676, 6-[4-[Acetyl(cyclopropylmethyl)amino]-3-chloro-phenyl]-N-(4-pyridylmethyl)pyridine-3-carboxamide] | > 0.997 | A (A = <33% inhibition) | –
CC(=O)N(CC(C)C)c1ccc(-c2ccc(C(=O)NCc3cccnc3)cn2)cc1 [Compound I-404] | – | B (B = ≥33 to <66% inhibition) | 0.032
CCC(=O)Nc1ccc(-c2ccc(C(=O)NCc3cccnc3)cn2)cc1 [Compound I-354, 6-[4-(propanoylamino)phenyl]-N-(3-pyridylmethyl)pyridine-3-carboxamide] | – | A (A = <33% inhibition) | > 30
CC(=O)N(c1ccc(-c2ccc(C(=O)NCc3cccnc3C)cn2)cc1C)C(C)C [Compound I-512, 6-[4-[Acetyl(isopropyl)amino]-3-methyl-phenyl]-N-[(2-methyl-3-pyridyl)methyl]pyridine-3-carboxamide] | 4.38 | A (A = <33% inhibition) | –

The remaining lines, values ahead:

IC50 (MV-4-11 cells; [1]) [µM] | NAMPT Inhibition Code (NAMPT) | IC50 (MV-4-11 cells; [2]) [µM] | SMILES
0.133 | B (B = ≥33 to <66% inhibition) | – | CC(=O)N(CCC(F)F)c1ccc(-c2ccc(C(=O)NCc3cccnc3)cn2)cc1C [Compound I-639, 6-[4-[Acetyl(3,3-difluoropropyl)amino]-3-methyl-phenyl]-N-(3-pyridylmethyl)pyridine-3-carboxamide]
2.44 | A (A = <33% inhibition) | – | CC(=O)N(CC1CC(F)(F)C1)c1ccc(-c2ccc(C(=O)NCc3cccnc3C)cn2)cc1 [Compound I-517, 6-[4-[Acetyl-[(3,3-difluorocyclobutyl)methyl]amino]phenyl]-N-[(2-methyl-3-pyridyl)methyl]pyridine-3-carboxamide]
0.00131 | C (C = ≥66% inhibition) | – | CC(=O)N(CC1CC1)c1ccc(-c2ccc(C(=O)Nc3ccc4nccn4c3)cn2)cc1Cl [Compound I-681, 6-[4-[Acetyl(cyclopropylmethyl)amino]-3-chloro-phenyl]-N-imidazo[1,2-a]pyridin-6-yl-pyridine-3-carboxamide]
0.137 | C (C = ≥66% inhibition) | – | CC(=O)N(c1ccc(-c2ccc(C(=O)NCc3cccnc3)cc2)cc1F)C(C)C [Compound I-630, 4-[4-[Acetyl(isopropyl)amino]-3-fluoro-phenyl]-N-(3-pyridylmethyl)benzamide]
0.0216 | C (C = ≥66% inhibition) | – | CC(=O)N(c1ccc(-c2ccc(C(=O)NCc3cccnc3)cc2)cc1Cl)C(C)C [Compound I-597, 4-[4-[Acetyl(isopropyl)amino]-3-chloro-phenyl]-N-(3-pyridylmethyl)benzamide]
0.0107 | C (C = ≥66% inhibition) | – | CC(=O)N(c1ccc(-c2ccc(C(=O)NCc3cccnc3)cn2)cc1C)C(C)C [Compound I-495, 6-[4-[Acetyl(isopropyl)amino]-3-methyl-phenyl]-N-(3-pyridylmethyl)pyridine-3-carboxamide]
0.0333 | B (B = ≥33 to <66% inhibition) | – | CC(C)CN(C(=O)C(F)F)c1ccc(-c2ccc(C(=O)NCc3cccnc3)cn2)cc1 [Compound I-468, 6-[4-[(2,2-Difluoroacetyl)-isobutyl-amino]phenyl]-N-(3-pyridylmethyl)pyridine-3-carboxamide]
0.000566 | C (C = ≥66% inhibition) | – | CC(=O)N(CC1CC1)c1ccc(-c2ccc(C(=O)NCc3ccc4nccn4c3)cn2)cc1Cl [Compound I-679, 6-[4-[Acetyl(cyclopropylmethyl)amino]-3-chloro-phenyl]-N-(imidazo[1,2-a]pyridin-6-ylmethyl)pyridine-3-carboxamide]
0.0924 | C (C = ≥66% inhibition) | – | CCN(C(C)=O)c1ccc(-c2ccc(C(=O)NCc3cccnc3)cn2)cc1Cl [Compound I-652, 6-[4-[Acetyl(ethyl)amino]-3-chloro-phenyl]-N-(3-pyridylmethyl)pyridine-3-carboxamide]
1.58 | B (B = ≥33 to <66% inhibition) | – | CC(=O)N(CC(F)F)c1ccc(-c2ccc(C(=O)NCc3cccnc3)cn2)cc1 [Compound I-631, 6-[4-[Acetyl(2,2-difluoroethyl)amino]phenyl]-N-(3-pyridylmethyl)pyridine-3-carboxamide]
0.261 | A (A = <33% inhibition) | – | CC(=O)N(CC1CC1)c1ccc(-c2ccc(C(=O)Nc3ccn4ccnc4c3)cn2)cc1Cl [Compound I-687, 6-[4-[Acetyl(cyclopropylmethyl)amino]-3-chloro-phenyl]-N-imidazo[1,2-a]pyridin-7-yl-pyridine-3-carboxamide]
